Consider 17 molecules from patent US10143681B2, “Factor XIa inhibitors” (MERCK SHARP & DOHME CORP., priority 2016, dated 2018).

Each structure is given as a SMILES string.

One experiment has as its target human Factor XIa (Homo sapiens (Human), UniProt P03951). Kind of experiment: Factor XIa Assay. Conditions: human Factor XIa 0.04 nM, 30 min pre-incubation at 25° C., substrate GPR-AFC; read-out: FXIa IC50. The class given is biochemical. A digest of the protocol: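 IC50 values were obtained from four-parameter log(inhibitor)-response fits of % inhibition, then converted to Ki using Cheng-Prusoff. GPR-AFC hydrolysis was read at 400/505 nm after 60 min at 25 °C.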

In a further experiment the target is Human plasma kallikrein (Homo sapiens (Human), UniProt P03952). Kind of experiment: Kallikrein Assay. The class given is biochemical. Conditions: purified Human plasma kallikrein 0.5 nM, substrate Acetyl-K-P-R-AFC; read-out: P. KLK IC50. The method, then:
The effectiveness of a compound of the present invention as an inhibitor of Kallikrein can be determined using a relevant purified serine protease, and an appropriate synthetic substrate. The rate of hydrolysis of the chromogenic or fluorogenic substrate by the relevant serine protease was measured both in the absence and presence of compounds of the present invention. Assays were conducted at room temperature or at 37° C. […] A decrease in the rate of fluorescence change in the presence of inhibitor is indicative of enzyme inhibition. Such methods are known to one skilled in the art. The results of this assay are expressed as the half-maximal inhibitory concentrations (IC50), or the inhibitory constant, Ki.
Kallikrein determinations were made in 50 mM HEPES buffer at pH 7.4 containing 150 mM NaCl, 5 mM CaCl2, and 0.1% PEG 8000 (polyethylene glycol; Fisher Scientific). Determinations were made using purified Human plasma kallikrein at a final concentration of 0.5 nM (Enzyme Research Laboratories) and the synthetic substrate, Acetyl-K-P-R-AFC (Sigma # C6608) at a concentration of […].
Times required to achieve equilibration between enzyme and inhibitor were determined in control experiments. The reactions were performed under linear progress curve conditions and fluorescence increase measured at 405 Ex/510 Em nm. […] IC50 was determined by inflection point from a four parameter logistic curve fit. Ki was calculated using the Cheng Prusoff equation, Ki=IC50/(1+([S]/Km)).

The subject of experiment [1] is Human plasma (intrinsic coagulation cascade). Kind of experiment: Activated Partial Thromboplastin Time (aPTT) Assay. Conditions: concentration that causes a 50% (1.5×) increase of clot time over vehicle. An outline of the steps: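 Inhibitors spiked into pooled citrated normal-donor human plasma (aPTT 28-40 seconds), run on automated coagulation analyzer: ellagic acid activation of Factor XII, then clot time after recalcification. Reported as concentration giving 50% (1.5×) prolongation over vehicle clot time.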

Sequence of human Factor XIa (P03951 388-625): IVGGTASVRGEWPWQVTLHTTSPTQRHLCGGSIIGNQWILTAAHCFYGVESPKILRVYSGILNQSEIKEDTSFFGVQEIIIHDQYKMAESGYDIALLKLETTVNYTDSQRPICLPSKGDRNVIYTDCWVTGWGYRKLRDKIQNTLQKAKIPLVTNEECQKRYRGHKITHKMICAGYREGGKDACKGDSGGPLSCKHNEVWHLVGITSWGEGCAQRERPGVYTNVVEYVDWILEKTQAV
Sequence of human Factor XIa (P03951 19-387 partner): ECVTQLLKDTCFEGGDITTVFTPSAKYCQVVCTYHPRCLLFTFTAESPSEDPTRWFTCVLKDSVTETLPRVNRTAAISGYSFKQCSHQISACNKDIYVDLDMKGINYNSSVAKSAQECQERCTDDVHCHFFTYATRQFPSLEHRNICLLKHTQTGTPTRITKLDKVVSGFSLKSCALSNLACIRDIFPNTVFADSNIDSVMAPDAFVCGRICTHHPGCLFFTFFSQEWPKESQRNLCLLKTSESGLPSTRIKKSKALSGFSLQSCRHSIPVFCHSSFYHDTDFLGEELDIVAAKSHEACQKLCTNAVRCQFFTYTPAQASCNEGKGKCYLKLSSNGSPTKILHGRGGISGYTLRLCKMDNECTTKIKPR
Sequence of Human plasma kallikrein (P03952 391-638): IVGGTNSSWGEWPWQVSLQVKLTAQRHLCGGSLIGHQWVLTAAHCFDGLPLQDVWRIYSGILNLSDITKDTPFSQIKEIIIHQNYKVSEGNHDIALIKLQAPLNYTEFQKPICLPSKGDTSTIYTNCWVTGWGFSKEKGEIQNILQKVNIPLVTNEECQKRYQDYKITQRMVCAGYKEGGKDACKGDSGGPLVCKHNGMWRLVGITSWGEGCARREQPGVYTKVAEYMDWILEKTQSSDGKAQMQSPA
Sequence of Human plasma kallikrein (P03952 20-390 partner): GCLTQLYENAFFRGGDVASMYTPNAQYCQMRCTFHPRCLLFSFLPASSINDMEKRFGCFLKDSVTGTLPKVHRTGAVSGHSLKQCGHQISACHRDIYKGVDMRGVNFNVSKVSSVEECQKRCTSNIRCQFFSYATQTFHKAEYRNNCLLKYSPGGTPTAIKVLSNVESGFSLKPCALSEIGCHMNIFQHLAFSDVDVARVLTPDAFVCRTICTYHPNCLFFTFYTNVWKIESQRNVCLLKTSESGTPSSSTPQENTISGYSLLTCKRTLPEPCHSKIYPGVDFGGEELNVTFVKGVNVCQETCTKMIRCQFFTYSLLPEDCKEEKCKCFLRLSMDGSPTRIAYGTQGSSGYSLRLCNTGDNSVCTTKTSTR

For orientation: IC50 means the concentration that gives 50% inhibition. For `O=C(O)c1ccc(NC(=O)C(CC2CCC2)c2ccc(-c3c(OC(F)F)ccc(Cl)c3F)c[n+]2[O-])cc1` (single isomer, unassigned) [Example 15, (R)- or (S)-4-[(2-{5-[3-chloro-6-(difluoromethoxy)-2-fluorophenyl]-1-oxidopyridin-2-yl}-3-cyclobutylpropanoyl)amino] benzoic acid], the IC50 at human Factor XIa amounted to 0.56 nM; on Human plasma kallikrein, 20 nM. Also, the “aPTT (1.5x)” value in experiment [1] is 0.75 µM.
For `O=C(O)c1ccc(NC(=O)C(CC2CCCC2)c2ccc(-c3c(OC(F)F)ccc(Cl)c3F)c[n+]2[O-])cc1` (single isomer, unassigned) [Example 19, (R)- or (S)-4-[(2-{5-[3-chloro-6-(difluoromethoxy)-2-fluorophenyl]-1-oxidopyridin-2-yl}-3-cyclopentylpropanoyl)amino] benzoic acid], the IC50 at human Factor XIa came out at 0.45 nM; at Human plasma kallikrein, 20 nM. Moreover, the “aPTT (1.5x)” value in experiment [1] worked out at 1.3 µM.
`O=C(O)c1ccc(NC(=O)C(CC2CC2)c2ccc(-c3cc(Cl)ccc3C(F)(F)F)c[n+]2[O-])cc1` (single isomer, unassigned) [Example 25, (R)- or (S)-2-(1-((4-carboxyphenyl)amino)-3-cyclopropyl-1-oxopropan-2-yl)-5-(5-chloro-2-(trifluoromethyl)phenyl)pyridine 1-oxide]: the IC50 was 16 nM on human Factor XIa and 756 nM at Human plasma kallikrein. In experiment [1], the “aPTT (1.5x)” value turned out to be 10.28 µM.
In the case of `O=C(O)c1ccc(NC(=O)C(CC2CC2)c2ccc(-c3c(C(F)(F)F)ccc(Cl)c3F)c[n+]2[O-])cc1` (single isomer, unassigned) [Example 27, (R)- or (S)-2-(1-((4-carboxyphenyl)amino)-3-cyclopropyl-1-oxopropan-2-yl)-5-(3-chloro-2-fluoro-6-(trifluoromethyl)phenyl)pyridine 1-oxide], the IC50 stood at 2.8 nM on human Factor XIa and 162 nM at Human plasma kallikrein. Also, the “aPTT (1.5x)” value in experiment [1] amounted to 2.68 µM.
Consider `O=C(O)c1ccc(NC(=O)C(CC2CC2)c2ccc(-c3cc(Cl)ccc3C(F)F)c[n+]2[O-])cc1` (single isomer, unassigned) [Example 29, (R)- or (S)-2-(1-((4-carboxyphenyl)amino)-3-cyclopropyl-1-oxopropan-2-yl)-5-(5-chloro-2-(difluoromethyl)phenyl)pyridine 1-oxide], for which the IC50 was 4.3 nM on human Factor XIa and 84 nM on Human plasma kallikrein. For the same molecule, the “aPTT (1.5x)” value in experiment [1] amounted to 2.07 µM.
Regarding `O=C(O)c1ccc(NC(=O)C(C[C@H]2CC[C@H](O)CC2)c2ccc(-c3c(C(F)F)ccc(Cl)c3F)c[n+]2[O-])cc1` (single isomer, unassigned) [Example 37, (R)- or (S)-2-(1-((4-carboxyphenyl)amino)-3-((1r,4r)-4-hydroxycyclohexyl)-1-oxopropan-2-yl)-5-(3-chloro-6-(difluoromethyl)-2-fluorophenyl)pyridine 1-oxide], the IC50 on human Factor XIa is 0.33 nM; on Human plasma kallikrein, 5.7 nM. The “aPTT (1.5x)” value in experiment [1] was determined as 0.4 µM.
As for `C[C@]1(O)CC[C@H](CC(C(=O)Nc2ccc(C(=O)O)cc2)c2ccc(-c3c(OC(F)F)ccc(Cl)c3F)c[n+]2[O-])CC1` (single isomer, unassigned) [Example 43, 2-(1-((4-carboxyphenyl)amino)-3-((1r,4r)-4-hydroxy-4-methylcyclohexyl)-1-oxopropan-2-yl)-5-(3-chloro-6-(difluoromethoxy)-2-fluorophenyl)pyridine 1-oxide], the IC50 stood at 0.45 nM on human Factor XIa and 20 nM at Human plasma kallikrein. Also, the “aPTT (1.5x)” value in experiment [1] was found to be 0.55 µM.
For `C[C@]1(O)CC[C@@H](CC(C(=O)Nc2ccc(C(=O)O)cc2)c2ccc(-c3c(C(F)F)ccc(Cl)c3F)c[n+]2[O-])CC1` (single isomer, unassigned) [Example 45, 2-(1-((4-carboxyphenyl)amino)-3-((1s,4s)-4-hydroxy-4-methylcyclohexyl)-1-oxopropan-2-yl)-5-(3-chloro-6-(difluoromethyl)-2-fluorophenyl)pyridine 1-oxide] the same measures were 2.7 nM, 12 nM and 1.16 µM.
For `C[C@]1(O)CC[C@H](CC(C(=O)Nc2ccc(C(=O)O)cc2)c2ccc(-c3c(C(F)F)ccc(Cl)c3F)c[n+]2[O-])CC1` (single isomer, unassigned) [Example 47, 2-(1-((4-carboxyphenyl)amino)-3-((1r,4r)-4-hydroxy-4-methylcyclohexyl)-1-oxopropan-2-yl)-5-(3-chloro-6-(difluoromethyl)-2-fluorophenyl)pyridine 1-oxide] the same measures were 0.56 nM, 20 nM and 0.59 µM.
For the molecule `CC1CC1C[C@@H](C(=O)Nc1ccc(C(=O)O)cc1)c1ccc(-c2c(C(F)F)ccc(Cl)c2F)c[n+]1[O-]` (single isomer, unassigned) [Example 62], the IC50 on human Factor XIa is 0.21 nM; at Human plasma kallikrein it was 6.1 nM. Further, the “aPTT (1.5x)” value in experiment [1] came out at 0.35 µM.
On to `CC1CC1C[C@@H](C(=O)Nc1ccc(C(=O)O)cc1)c1ccc(-c2c(C(F)F)ccc(Cl)c2F)c[n+]1[O-]` (single isomer, unassigned) [Example 63], for which the IC50 was 0.19 nM at human Factor XIa and 2.9 nM at Human plasma kallikrein. For the same molecule, in experiment [1], the “aPTT (1.5x)” value came to 2.13 µM.
Turning to `CC1CC(CC(C(=O)Nc2ccc(C(=O)O)cc2)c2ccc(-c3c(C(F)(F)F)ccc(Cl)c3F)c[n+]2[O-])C1` (single isomer, unassigned) [Example 74, 2-(1-((4-carboxyphenyl)amino)-3-(3-methylcyclobutyl)-1-oxopropan-2-yl)-5-(3-chloro-2-fluoro-6-(trifluoromethyl)phenyl) pyridine 1-oxide], the IC50 on human Factor XIa is 1.3 nM; on Human plasma kallikrein, 19.2 nM. Also, the “aPTT (1.5x)” value in experiment [1] is 2.77 µM.
In the case of `O=C(O)c1ccc(NC(=O)C(CC2CC(F)C2)c2ccc(-c3c(C(F)F)ccc(Cl)c3F)c[n+]2[O-])cc1` (single isomer, unassigned) [Example 81, 2-(1-((4-carboxyphenyl)amino)-3-(3-fluorocyclobutyl)-1-oxopropan-2-yl)-5-(3-chloro-6-(difluoromethyl)-2-fluorophenyl)pyridine-1-oxide], the IC50 on human Factor XIa worked out at 1.2 nM; at Human plasma kallikrein, 8.4 nM. Also, the “aPTT (1.5x)” value in experiment [1] is 0.58 µM.
For `O=C(O)c1ccc(NC(=O)C(CC2CC2F)c2ccc(-c3c(C(F)F)ccc(Cl)c3F)c[n+]2[O-])cc1` (single isomer, unassigned) [Example 93, 2-(1-((4-carboxyphenyl)amino)-3-(2-fluorocyclopropyl)-1-oxopropan-2-yl)-5-(3-chloro-6-(difluoromethyl)-2-fluorophenyl)pyridine-1-oxide] the same measures were 3.3 nM, 28 nM and 0.8 µM.
On to `O=C(O)c1ccc(NC(=O)C(CC2CC2CF)c2ccc(-c3c(C(F)F)ccc(Cl)c3F)c[n+]2[O-])cc1` (single isomer, unassigned) [Example 94, 2-(1-((4-carboxyphenyl)amino)-3-(2-(fluoromethyl)cyclopropyl)-1-oxopropan-2-yl)-5-(3-chloro-6-(difluoromethyl)-2-fluorophenyl)pyridine 1-oxide], for which the values for the IC50 at human Factor XIa and on Human plasma kallikrein were 0.4 nM and 6 nM, respectively. Also, the “aPTT (1.5x)” value in experiment [1] was found to be 0.4 µM.
For `O=C(O)c1ccc(NC(=O)C(CC2CC2CF)c2ccc(-c3c(C(F)F)ccc(Cl)c3F)c[n+]2[O-])cc1` (single isomer, unassigned) [Example 95, 2-(1-((4-carboxyphenyl)amino)-3-(2-(fluoromethyl)cyclopropyl)-1-oxopropan-2-yl)-5-(3-chloro-6-(difluoromethyl)-2-fluorophenyl)pyridine-1-oxide] the same measures were 0.4 nM, 9.6 nM and 0.43 µM.
Regarding `O=C(O)c1ccc(NC(=O)C(CC2CC2C(F)(F)F)c2ccc(-c3c(OC(F)F)ccc(Cl)c3F)c[n+]2[O-])cc1` (single isomer, unassigned) [Example 107, 2-(1-((4-carboxyphenyl)amino)-1-oxo-3-(2-(trifluoromethyl)cyclopropyl)propan-2-yl)-5-(3-chloro-6-(difluoromethoxy)-2-fluorophenyl)pyridine 1-oxide], the IC50 at human Factor XIa was 3.2 nM; on Human plasma kallikrein, 24.2 nM. The “aPTT (1.5x)” value in experiment [1] stood at 1.74 µM.
